Source: ChEMBL document CHEMBL4706663, “Large-scale isolation and antitumor mechanism evaluation of compounds from the traditional Chinese medicine Cordyceps Militaris” (Eur J Med Chem, 2021)
Calls of active or inactive are those of the source. The rule behind the calls is not given here.

Columns and labels:
[1] = target: T1, Delta(3,5)-Delta(2,4)-dienoyl-CoA isomerase, mitochondrial (Homo sapiens) (UniProt Q13011); experiment: Binding affinity to delta(3,5)-delta(2,4)-dienoyl-CoA isomerase, mitochondrial in human A549 cells by LC-MS/MS analysis; format: cell-based
T1 sequence (whole entry): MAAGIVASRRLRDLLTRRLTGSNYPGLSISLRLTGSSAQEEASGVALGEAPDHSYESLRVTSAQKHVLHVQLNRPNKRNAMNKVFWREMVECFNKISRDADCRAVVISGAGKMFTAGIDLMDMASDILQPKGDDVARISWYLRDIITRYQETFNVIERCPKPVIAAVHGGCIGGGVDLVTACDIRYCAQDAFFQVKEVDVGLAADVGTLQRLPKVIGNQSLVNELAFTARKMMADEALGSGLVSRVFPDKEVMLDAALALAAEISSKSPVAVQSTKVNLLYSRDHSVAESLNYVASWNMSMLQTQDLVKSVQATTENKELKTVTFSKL

[2] = Toxicity in […] lung cancer cells xenografted BALB/c mouse assessed as survival rate at 80 mg/kg, ig administered every day for 10 days (reference value: 100%); format: organism-based; details: in vivo, po, time 10 day
[3] = Antitumor activity against […] cells xenografted in KM mouse assessed as liver weight at 27 mg/kg, ig administered every day for 10 days measured post last dose (reference value: 1.57 +/- 0.3 g); format: functional; details: time 10 day
[4] = Antitumor activity against […] cells xenografted in KM mouse assessed as tumor growth inhibition at 27 mg/kg, ig administered every day for 10 days relative to control; format: functional; details: H22, po, 240 h, time 10 day, read-out: TGI
[5] = Antitumor activity against […] cancer cells xenografted in BALB/c mouse assessed as tumor weight at 27 mg/kg, ig administered every day for 10 days (reference value: 1.68 +/- 0.78 g); format: functional, Lewis lung carcinoma; details: time 10 day
[6] = target: Heat shock cognate 71 kDa protein (Homo sapiens) (UniProt P11142); experiment: Binding affinity to heat shock cognate 71 kDa protein isoform 1 in human A549 cells by LC-MS/MS analysis; format: cell-based
[7] = Antitumor activity against […] cancer cells xenografted in BALB/c mouse assessed as tumor growth inhibition at 27 mg/kg, ig administered every day for 10 days relative to control; format: functional; details: Lewis lung carcinoma, po, 240 h, time 10 day, read-out: TGI
[8] = Antitumor activity against […] cells xenografted in KM mouse assessed as liver weight at 80 mg/kg, ig administered every day for 10 days measured post last dose (reference value: 1.57 +/- 0.3 g); format: functional; details: time 10 day
[9] = target: Heat shock 70 kDa protein 1A/1B (Homo sapiens) (UniProt P0DMV8+P0DMV9); experiment: Binding affinity to heat shock 70 kDa protein 1A/1B in human A549 cells by LC-MS/MS analysis; format: cell-based
[10] = target: Endoplasmic reticulum chaperone BiP (Homo sapiens) (UniProt P11021); experiment: Binding affinity to 78 kDa glucose-regulated protein in human A549 cells by LC-MS/MS analysis; format: cell-based
[11] = Antitumor activity against […] cancer cells xenografted in BALB/c mouse assessed as tumor growth inhibition at 240 mg/kg, ig administered every day for 10 days relative to control; format: functional; details: Lewis lung carcinoma, po, 240 h, time 10 day, read-out: TGI
[12] = Antitumor activity against […] cancer cells xenografted in BALB/c mouse assessed as lung weight at 240 mg/kg, ig administered every day for 10 days measured post last dose (reference value: 0.13 +/- 0.03 g); format: functional, Lewis lung carcinoma; details: time 10 day
[13] = Antitumor activity against […] cells xenografted in KM mouse assessed as tumor weight at 80 mg/kg, ig administered every day for 10 days (reference value: 0.55 +/- 0.57 g); format: functional; details: time 10 day
[14] = Antitumor activity against […] cells xenografted in KM mouse assessed as tumor weight at 240 mg/kg, ig administered every day for 10 days (reference value: 0.55 +/- 0.57 g); format: functional; details: time 10 day
[15] = target: Glyceraldehyde-3-phosphate dehydrogenase (Homo sapiens) (UniProt P04406); experiment: Binding affinity to GAPDH in human A549 cells by LC-MS/MS analysis; format: cell-based
[16] = Toxicity in […] lung cancer cells xenografted BALB/c mouse assessed as survival rate at 240 mg/kg, ig administered every day for 10 days (reference value: 100%); format: organism-based; details: in vivo, po, time 10 day
[17] = Antitumor activity against […] cells xenografted in KM mouse assessed as tumor weight at 27 mg/kg, ig administered every day for 10 days (reference value: 0.55 +/- 0.57 g); format: functional; details: time 10 day
[18] = Toxicity in […] lung cancer cells xenografted BALB/c mouse assessed as survival rate at 27 mg/kg, ig administered every day for 10 days (reference value: 100%); format: organism-based; details: in vivo, po, time 10 day
[19] = target: Dihydropyrimidinase-related protein 2 (Homo sapiens) (UniProt Q16555); experiment: Binding affinity to dihydropyrimidinase-related protein 2 isoform 1 in human A549 cells by LC-MS/MS analysis; format: cell-based
HepG2 = experiment: Antiproliferative activity against human HepG2 cells assessed as inhibition of cell growth at 12.5 ug/ml measured after 48 hrs by real-time cell analysis relative to control; format: functional; details: read-out: GI
[20] = target: Tropomyosin alpha-4 chain (Homo sapiens) (UniProt P67936); experiment: Binding affinity to tropomyosin alpha-4 chain isoform 1 in human A549 cells by LC-MS/MS analysis; format: cell-based
[21] = Toxicity in […] cells xenografted KM mouse assessed as survival rate at 240 mg/kg, ig administered every day for 10 days relative to control; format: organism-based; details: in vivo, po, time 10 day
[22] = Toxicity in […] lung cancer cells xenografted BALB/c mouse assessed as net weight at 240 mg/kg, ig administered every day for 10 days (reference value: 1.16 +/- 1.55 g); format: organism-based; details: in vivo, po, 240 h, time 10 day
[23] = Antitumor activity against […] cells xenografted in KM mouse assessed as tumor growth inhibition at 80 mg/kg, ig administered every day for 10 days relative to control; format: functional; details: H22, po, 240 h, time 10 day, read-out: TGI
[24] = Toxicity in […] lung cancer cells xenografted BALB/c mouse assessed as net weight at 80 mg/kg, ig administered every day for 10 days (reference value: 1.16 +/- 1.55 g); format: organism-based; details: in vivo, po, 240 h, time 10 day
[25] = Toxicity in […] cells xenografted KM mouse assessed as net weight at 27 mg/kg, ig administered every day for 10 days (reference value: 9.45 +/- 4 g); format: organism-based; details: in vivo, po, 240 h, time 10 day
[26] = Toxicity in […] cells xenografted KM mouse assessed as survival rate at 80 mg/kg, ig administered every day for 10 days relative to control; format: organism-based; details: in vivo, po, time 10 day
A549 = experiment: Antiproliferative activity against human A549 cells assessed as inhibition of cell growth at 12.5 ug/ml measured after 48 hrs by real-time cell analysis relative to control; format: functional; details: read-out: GI
[27] = Toxicity in […] lung cancer cells xenografted BALB/c mouse assessed as net weight at 27 mg/kg, ig administered every day for 10 days (reference value: 1.16 +/- 1.55 g); format: organism-based; details: in vivo, po, 240 h, time 10 day
[28] = Toxicity in […] cells xenografted KM mouse assessed as net weight at 240 mg/kg, ig administered every day for 10 days (reference value: 9.45 +/- 4 g); format: organism-based; details: in vivo, po, 240 h, time 10 day

Heat shock cognate 71 kDa protein (Homo sapiens), sequence (P11142 2-646 limits assumed): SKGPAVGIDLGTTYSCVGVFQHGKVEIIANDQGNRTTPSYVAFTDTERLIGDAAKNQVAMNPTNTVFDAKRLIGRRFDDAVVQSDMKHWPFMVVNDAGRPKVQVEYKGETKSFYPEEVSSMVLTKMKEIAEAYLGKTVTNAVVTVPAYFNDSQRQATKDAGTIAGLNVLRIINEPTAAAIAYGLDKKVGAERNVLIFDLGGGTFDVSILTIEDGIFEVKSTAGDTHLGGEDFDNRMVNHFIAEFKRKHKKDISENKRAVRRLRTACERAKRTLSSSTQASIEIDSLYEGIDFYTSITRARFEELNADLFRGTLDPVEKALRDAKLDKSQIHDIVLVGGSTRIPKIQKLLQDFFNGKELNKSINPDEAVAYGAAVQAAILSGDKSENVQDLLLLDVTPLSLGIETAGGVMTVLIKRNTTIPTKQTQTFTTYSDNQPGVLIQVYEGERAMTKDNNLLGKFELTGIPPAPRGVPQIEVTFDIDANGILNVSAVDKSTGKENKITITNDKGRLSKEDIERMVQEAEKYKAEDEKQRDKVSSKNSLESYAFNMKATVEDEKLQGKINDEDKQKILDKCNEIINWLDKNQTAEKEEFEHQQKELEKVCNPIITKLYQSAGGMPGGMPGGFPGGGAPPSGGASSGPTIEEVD
Heat shock 70 kDa protein 1A/1B (Homo sapiens), sequence (P0DMV8 whole entry, looked up): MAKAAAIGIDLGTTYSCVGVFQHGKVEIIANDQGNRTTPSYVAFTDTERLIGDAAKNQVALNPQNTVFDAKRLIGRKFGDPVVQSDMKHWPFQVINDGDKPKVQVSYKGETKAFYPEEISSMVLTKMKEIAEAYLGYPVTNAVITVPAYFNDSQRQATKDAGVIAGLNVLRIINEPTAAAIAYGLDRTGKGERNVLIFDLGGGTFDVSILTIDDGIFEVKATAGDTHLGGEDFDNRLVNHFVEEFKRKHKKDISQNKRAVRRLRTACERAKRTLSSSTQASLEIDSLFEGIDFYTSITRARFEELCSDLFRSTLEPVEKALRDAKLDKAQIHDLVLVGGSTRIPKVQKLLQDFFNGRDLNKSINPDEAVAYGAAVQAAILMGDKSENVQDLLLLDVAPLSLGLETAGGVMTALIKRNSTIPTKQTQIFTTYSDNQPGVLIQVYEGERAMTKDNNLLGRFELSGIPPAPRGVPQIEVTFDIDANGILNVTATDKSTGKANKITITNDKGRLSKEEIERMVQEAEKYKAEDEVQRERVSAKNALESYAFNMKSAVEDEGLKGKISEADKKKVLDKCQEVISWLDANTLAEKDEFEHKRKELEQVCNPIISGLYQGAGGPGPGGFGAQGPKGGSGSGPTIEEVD
Heat shock 70 kDa protein 1A/1B (Homo sapiens), sequence (P0DMV9 whole entry, looked up): as the sequence (P0DMV8 whole entry, looked up) above
Glyceraldehyde-3-phosphate dehydrogenase (Homo sapiens), sequence (P04406 2-335 limits assumed): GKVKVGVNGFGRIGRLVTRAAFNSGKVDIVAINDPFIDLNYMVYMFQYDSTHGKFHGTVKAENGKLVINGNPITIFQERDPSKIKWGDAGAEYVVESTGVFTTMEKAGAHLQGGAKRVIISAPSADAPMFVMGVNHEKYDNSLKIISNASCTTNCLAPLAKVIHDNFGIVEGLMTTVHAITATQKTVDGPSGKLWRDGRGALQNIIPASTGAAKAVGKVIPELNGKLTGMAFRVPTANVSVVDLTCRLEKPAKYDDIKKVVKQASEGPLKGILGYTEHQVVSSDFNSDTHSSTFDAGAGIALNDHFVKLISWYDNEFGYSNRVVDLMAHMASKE
Endoplasmic reticulum chaperone BiP (Homo sapiens), sequence (P11021 whole entry): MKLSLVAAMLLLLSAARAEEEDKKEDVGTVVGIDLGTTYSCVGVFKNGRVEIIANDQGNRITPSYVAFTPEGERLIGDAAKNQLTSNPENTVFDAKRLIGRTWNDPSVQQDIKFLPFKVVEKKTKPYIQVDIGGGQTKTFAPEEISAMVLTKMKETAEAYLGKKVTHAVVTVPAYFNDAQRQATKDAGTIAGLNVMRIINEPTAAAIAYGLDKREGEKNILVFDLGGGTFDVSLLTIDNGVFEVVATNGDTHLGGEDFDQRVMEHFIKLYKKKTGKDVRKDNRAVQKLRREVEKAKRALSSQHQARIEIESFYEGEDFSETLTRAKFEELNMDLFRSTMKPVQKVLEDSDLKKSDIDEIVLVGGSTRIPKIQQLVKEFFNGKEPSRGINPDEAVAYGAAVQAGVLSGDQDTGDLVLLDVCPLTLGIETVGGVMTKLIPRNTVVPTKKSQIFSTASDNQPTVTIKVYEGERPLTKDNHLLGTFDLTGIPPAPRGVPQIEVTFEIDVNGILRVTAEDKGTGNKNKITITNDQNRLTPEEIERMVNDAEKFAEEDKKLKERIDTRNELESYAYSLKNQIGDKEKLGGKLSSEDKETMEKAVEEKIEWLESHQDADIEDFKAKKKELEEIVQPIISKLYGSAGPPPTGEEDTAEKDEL
Tropomyosin alpha-4 chain (Homo sapiens), sequence (P67936 whole entry, canonical isoform): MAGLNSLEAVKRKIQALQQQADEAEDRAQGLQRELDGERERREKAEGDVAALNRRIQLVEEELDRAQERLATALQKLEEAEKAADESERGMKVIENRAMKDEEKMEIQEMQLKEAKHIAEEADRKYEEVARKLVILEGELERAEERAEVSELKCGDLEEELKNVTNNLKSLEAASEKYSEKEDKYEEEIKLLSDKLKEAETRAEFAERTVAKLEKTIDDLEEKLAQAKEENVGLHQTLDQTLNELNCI

In the case of `CC(C)[C@@H](C)/C=C/[C@@H](C)[C@H]1CC[C@H]2C3=CC=C4C[C@@H](O)CC[C@]4(C)[C@H]3CC[C@]12C` [ERGOSTEROL], the Activity [1] is reported as “Active”, the survival at 240 h [2] is reported as 100% and the Activity [3] is reported as 1.67 g. The inhibition in vivo at 27 mg/kg [4] was 23.4%, the Activity [5] was 1.42 g and the Activity [6] was “Active”. For the same compound, the inhibition in vivo at 27 mg/kg [7] was 15.8%, the Activity [8] was 1.87 g and the Activity [9] was “Active”. For the same compound, the Activity [10] was “Active”, the inhibition in vivo at 240 mg/kg [11] was 44.6% and the Activity [12] was 0.13 g. The Activity [13] was 0.32 g, the Activity [14] was 0.19 g and the Activity [15] was “Active”. For the same compound, the survival at 240 h [16] was 100%, the Activity [17] was 0.42 g and the survival at 240 h [18] was 100%. The Activity [19] was “Active”, the inhibition of growth at 12.5 µg/mL (HepG2) was 100% and the Activity [20] was “Active”. It also gave a survival at 240 h [21] of 100%, an Activity [22] of -0.61 g and an inhibition in vivo at 80 mg/kg [23] of 41.1%. It also gave an Activity [24] of -0.95 g, an Activity [25] of 6.92 g and a survival at 240 h [26] of 100%. The inhibition of growth at 12.5 µg/mL (A549) was 100%, the Activity [27] was -0.36 g and the Activity [28] was 5.7 g.
